≈ marks a conversion by molar mass, not a printed value.
Tests used:
[1] = test system: Staphylococcus aureus C10; assay: Antibacterial activity against clinically isolated S. aureus (agar dilution MIC, Table 2); format: cell-based; conditions: Staphylococcus aureus; strain C10; agar dilution; Mueller Hinton medium; 10^6 CFU/ml; read-out: MIC
Procedure: (§1) DMPPC: Methicillin, KM: Kanamycin, GM: Gentamycin, EM: Erythromycin (Note
(§2) Determined by the agar dilution method. Medium: Mueller Hinton medium
(§3) (Difco, USA) Inoculum Size: 10^6 CFU/ml, 37° C.

Staphylococcus aureus C3 = assay: as above; format: cell-based; conditions: Staphylococcus aureus; strain C3; agar dilution; Mueller Hinton medium; 10^6 CFU/ml; read-out: MIC
Procedure: as §1, §2, §3

Staphylococcus aureus C4 = assay: as above; format: cell-based; conditions: Staphylococcus aureus, C4
Procedure: as §1, §2, §3

Staphylococcus aureus C7 = assay: as above; format: cell-based; conditions: Staphylococcus aureus; strain C7; agar dilution; Mueller Hinton medium; 10^6 CFU/ml; read-out: MIC
Procedure: as §1, §2, §3

[2] = test system: Staphylococcus aureus N121; assay: as above; format: cell-based; conditions: Staphylococcus aureus; strain N121; agar dilution; Mueller Hinton medium; 10^6 CFU/ml; read-out: MIC
Procedure: as §1, §2, §3

[3] = test system: Staphylococcus aureus N176-6; assay: as above; format: cell-based; conditions: Staphylococcus aureus, N1766; strain N176-6; agar dilution; Mueller Hinton medium; 10^6 CFU/ml; read-out: MIC
Procedure: as §1, §2, §3

[4] = test system: Staphylococcus aureus N176; assay: as above; format: cell-based; conditions: Staphylococcus aureus; strain N176; agar dilution; Mueller Hinton medium; 10^6 CFU/ml; read-out: MIC
Procedure: as §1, §2, §3

[5] = test system: Staphylococcus aureus N235; assay: as above; format: cell-based; conditions: Staphylococcus aureus; strain N235; agar dilution; Mueller Hinton medium; 10^6 CFU/ml; read-out: MIC
Procedure: as §1, §2, §3

[6] = test system: Staphylococcus aureus N237; assay: as above; format: cell-based; conditions: Staphylococcus aureus; strain N237; agar dilution; Mueller Hinton medium; 10^6 CFU/ml; read-out: MIC
Procedure: as §1, §2, §3

[7] = test system: Staphylococcus aureus N247-16; assay: as above; format: cell-based; conditions: Staphylococcus aureus, N24716; strain N247-16; agar dilution; Mueller Hinton medium; 10^6 CFU/ml; read-out: MIC
Procedure: as §1, §2, §3

[8] = test system: Staphylococcus aureus N247-21; assay: as above; format: cell-based; conditions: Staphylococcus aureus, N24721; strain N247-21; agar dilution; Mueller Hinton medium; 10^6 CFU/ml; read-out: MIC
Procedure: as §1, §2, §3

[9] = test system: Staphylococcus aureus N247; assay: as above; format: cell-based; conditions: Staphylococcus aureus; strain N247; agar dilution; Mueller Hinton medium; 10^6 CFU/ml; read-out: MIC
Procedure: as §1, §2, §3

[10] = test system: Staphylococcus aureus N262; assay: as above; format: cell-based; conditions: Staphylococcus aureus; strain N262; agar dilution; Mueller Hinton medium; 10^6 CFU/ml; read-out: MIC
Procedure: as §1, §2, §3

[11] = test system: Staphylococcus aureus N267; assay: as above; format: cell-based; conditions: Staphylococcus aureus; strain N267; agar dilution; Mueller Hinton medium; 10^6 CFU/ml; read-out: MIC
Procedure: as §1, §2, §3

[12] = test system: Staphylococcus aureus N28; assay: as above; format: cell-based; conditions: Staphylococcus aureus; strain N28; agar dilution; Mueller Hinton medium; 10^6 CFU/ml; read-out: MIC
Procedure: as §1, §2, §3

[13] = test system: Staphylococcus aureus N326; assay: as above; format: cell-based; conditions: Staphylococcus aureus; strain N326; agar dilution; Mueller Hinton medium; 10^6 CFU/ml; read-out: MIC
Procedure: as §1, §2, §3

[14] = test system: Staphylococcus aureus N51; assay: as above; format: cell-based; conditions: Staphylococcus aureus; strain N51; agar dilution; Mueller Hinton medium; 10^6 CFU/ml; read-out: MIC
Procedure: as §1, §2, §3

[15] = test system: Staphylococcus aureus N62; assay: as above; format: cell-based; conditions: Staphylococcus aureus; strain N62; agar dilution; Mueller Hinton medium; 10^6 CFU/ml; read-out: MIC
Procedure: as §1, §2, §3

[16] = test system: Staphylococcus aureus N64; assay: as above; format: cell-based; conditions: Staphylococcus aureus; strain N64; agar dilution; Mueller Hinton medium; 10^6 CFU/ml; read-out: MIC
Procedure: as §1, §2, §3

[17] = test system: Staphylococcus aureus N83; assay: as above; format: cell-based; conditions: Staphylococcus aureus; strain N83; agar dilution; Mueller Hinton medium; 10^6 CFU/ml; read-out: MIC
Procedure: as §1, §2, §3

Staphylococcus aureus N8 = assay: as above; format: cell-based; conditions: Staphylococcus aureus; strain N8; agar dilution; Mueller Hinton medium; 10^6 CFU/ml; read-out: MIC
Procedure: as §1, §2, §3

[18] = test system: Staphylococcus aureus N91; assay: as above; format: cell-based; conditions: Staphylococcus aureus; strain N91; agar dilution; Mueller Hinton medium; 10^6 CFU/ml; read-out: MIC
Procedure: as §1, §2, §3

[19] = test system: Staphylococcus aureus TS-65; assay: as above; format: cell-based; conditions: Staphylococcus aureus, TS65; strain TS-65; agar dilution; Mueller Hinton medium; 10^6 CFU/ml; read-out: MIC
Procedure: as §1, §2, §3

[20] = test system: Lactobacillus acidophilus ATCC 4356; assay: MIC against anaerobic bacteria (Table 3); format: cell-based; conditions: ATCC4356, 10^6 CFU/ml, GAM medium, Gas Pack, 37° C., 18 hours
Procedure: Inoculum size: 10^6 CFU/ml
^Note 1 GAM medium(Nissui),
Gas Pack (BBL), 37° C., 18 hours

[21] = test system: Bacteroides fladilis ATCC 2509; assay: MIC against anaerobic bacteria (Table 3); format: cell-based; conditions: ATCC2509, 10^6 CFU/ml, GAM medium, Gas Pack, 37° C., 18 hours
[22] = Conversion in aqueous solution; format: physicochemical; conditions: room temperature
Text: For example, in case that the mixture of TAN-1057A and B is isolated as crystals of the sulfate, the ratio of TAN-1057A and B is about 6 to 8:4 to 2.
The term "Antibiotics TAN-1057" in the present specification includes also a mixture which contains TAN-1057A, B, C and D in an optional combination and an optional ratio thereof.

Mycoplasma pulmonis M-53 = assay: MIC against Mycoplasma (Table 3); conditions: M53, 120 h
[23] = test system: Treponema hyodicenterie DJ70PI; assay: MIC against Spirochaeta (Table 3); conditions: 48 h

**Q.** For CN(C(=O)C[C@@H](N)CCCNC(=N)N)[C@H]1CNC(NC(N)=O)=NC1=O [TAN-1057A], which MIC [1] is on record?
**A.** 0.78 µg/mL (≈ 2.19 µM)

**Q.** And the MIC (Staphylococcus aureus C3)?
**A.** 0.78 µg/mL (≈ 2.19 µM)

**Q.** And the MIC (Staphylococcus aureus C4)?
**A.** 6.25 µg/mL (≈ 17.6 µM)

**Q.** And the MIC (Staphylococcus aureus C7)?
**A.** 0.78 µg/mL (≈ 2.19 µM)

**Q.** What about the MIC [2] of the same compound?
**A.** 0.78 µg/mL (≈ 2.19 µM)

**Q.** What about the MIC [3] of the same compound?
**A.** 0.78 µg/mL (≈ 2.19 µM)

**Q.** What about the MIC [4] of the same compound?
**A.** 1.56 µg/mL (≈ 4.39 µM)

**Q.** What about the MIC [5] of the same compound?
**A.** 1.56 µg/mL (≈ 4.39 µM)

**Q.** What about the MIC [6] of the same compound?
**A.** 0.78 µg/mL (≈ 2.19 µM)

**Q.** What about the MIC [7] of the same compound?
**A.** 0.78 µg/mL (≈ 2.19 µM)

**Q.** What about the MIC [8] of the same compound?
**A.** 0.78 µg/mL (≈ 2.19 µM)

**Q.** What about the MIC [9] of the same compound?
**A.** 1.56 µg/mL (≈ 4.39 µM)

**Q.** And the MIC [10]?
**A.** 0.78 µg/mL (≈ 2.19 µM)

**Q.** And the MIC [11]?
**A.** ≤ 0.2 µg/mL

**Q.** What about the MIC [12] of the same compound?
**A.** 0.78 µg/mL (≈ 2.19 µM)

**Q.** What about the MIC [13] of the same compound?
**A.** 0.78 µg/mL (≈ 2.19 µM)

**Q.** What about the MIC [14] of the same compound?
**A.** 0.78 µg/mL (≈ 2.19 µM)

**Q.** And the MIC [15]?
**A.** 0.78 µg/mL (≈ 2.19 µM)

**Q.** What about the MIC [16] of the same compound?
**A.** 0.78 µg/mL (≈ 2.19 µM)

**Q.** What about the MIC [17] of the same compound?
**A.** 0.39 µg/mL (≈ 1.1 µM)

**Q.** And the MIC (Staphylococcus aureus N8)?
**A.** 0.78 µg/mL (≈ 2.19 µM)

**Q.** What about the MIC [18] of the same compound?
**A.** 0.78 µg/mL (≈ 2.19 µM)

**Q.** And the MIC [19]?
**A.** 0.78 µg/mL (≈ 2.19 µM)

**Q.** And the MIC [20]?
**A.** 6.25 µg/mL (≈ 17.6 µM)

**Q.** And the MIC [21]?
**A.** 50 µg/mL (≈ 141 µM)

**Q.** What about the “conversion of TAN-1057A and B into each other” value [22] of the same compound?
**A.** converted easily each other

**Q.** And the MIC (Mycoplasma pulmonis M-53)?
**A.** 0.39 µg/mL (≈ 1.1 µM)

**Q.** And the MIC [23]?
**A.** 100 µg/mL (≈ 281 µM)
